Calls of active or inactive are those of the source.

The nature of assay [1]: A cytotoxicity screen of small molecule inhibitors of the PhoP region in Salmonella typhi identified in the primary screen. [Related pubchem assays: 1850, 1864, 1985 ]. It counts as functional.
The next assay addresses T1, Estrogen receptor (Homo sapiens, UniProt P03372).
T1 sequence (P03372 whole entry): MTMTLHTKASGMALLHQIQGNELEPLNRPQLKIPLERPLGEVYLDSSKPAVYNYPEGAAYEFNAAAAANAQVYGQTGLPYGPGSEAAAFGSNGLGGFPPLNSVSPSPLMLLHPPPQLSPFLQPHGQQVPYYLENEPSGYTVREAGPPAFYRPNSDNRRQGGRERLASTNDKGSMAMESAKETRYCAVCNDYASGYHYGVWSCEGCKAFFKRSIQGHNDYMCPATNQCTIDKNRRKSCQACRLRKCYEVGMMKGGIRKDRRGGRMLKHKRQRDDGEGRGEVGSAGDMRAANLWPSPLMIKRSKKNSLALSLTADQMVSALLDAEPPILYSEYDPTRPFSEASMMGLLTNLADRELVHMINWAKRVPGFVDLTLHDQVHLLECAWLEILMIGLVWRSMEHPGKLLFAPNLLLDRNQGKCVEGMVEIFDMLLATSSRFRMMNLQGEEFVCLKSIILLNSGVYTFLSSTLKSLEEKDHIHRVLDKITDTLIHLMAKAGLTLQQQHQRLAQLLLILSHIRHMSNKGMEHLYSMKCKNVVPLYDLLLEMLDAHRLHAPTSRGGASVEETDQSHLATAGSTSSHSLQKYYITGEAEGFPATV

The target in the next assay is Estrogen receptor beta (Homo sapiens, UniProt Q92731).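 Further: recombinant ER-beta bound to coactivator SRC1 peptide in presence of estradiol agonist; inhibitors block coactivator peptide binding and lower the FRET signal.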
The next assay deals with Cytochrome P450 2D6 (Homo sapiens, UniProt P10635). The experiment in a line: qHTS Assay for Inhibitors and Substrates of Cytochrome P450 2D6. [Related pubchem assays: 410 ]. The format is ADME. The following applies: read-out: Potency. In general terms: Quantitative high-throughput screening tests each substance at several concentrations.
Another assay concerns the target T2, Aminopeptidase N (Plasmodium falciparum FcB1/Columbia, UniProt O96935).
T2 sequence (O96935 whole entry): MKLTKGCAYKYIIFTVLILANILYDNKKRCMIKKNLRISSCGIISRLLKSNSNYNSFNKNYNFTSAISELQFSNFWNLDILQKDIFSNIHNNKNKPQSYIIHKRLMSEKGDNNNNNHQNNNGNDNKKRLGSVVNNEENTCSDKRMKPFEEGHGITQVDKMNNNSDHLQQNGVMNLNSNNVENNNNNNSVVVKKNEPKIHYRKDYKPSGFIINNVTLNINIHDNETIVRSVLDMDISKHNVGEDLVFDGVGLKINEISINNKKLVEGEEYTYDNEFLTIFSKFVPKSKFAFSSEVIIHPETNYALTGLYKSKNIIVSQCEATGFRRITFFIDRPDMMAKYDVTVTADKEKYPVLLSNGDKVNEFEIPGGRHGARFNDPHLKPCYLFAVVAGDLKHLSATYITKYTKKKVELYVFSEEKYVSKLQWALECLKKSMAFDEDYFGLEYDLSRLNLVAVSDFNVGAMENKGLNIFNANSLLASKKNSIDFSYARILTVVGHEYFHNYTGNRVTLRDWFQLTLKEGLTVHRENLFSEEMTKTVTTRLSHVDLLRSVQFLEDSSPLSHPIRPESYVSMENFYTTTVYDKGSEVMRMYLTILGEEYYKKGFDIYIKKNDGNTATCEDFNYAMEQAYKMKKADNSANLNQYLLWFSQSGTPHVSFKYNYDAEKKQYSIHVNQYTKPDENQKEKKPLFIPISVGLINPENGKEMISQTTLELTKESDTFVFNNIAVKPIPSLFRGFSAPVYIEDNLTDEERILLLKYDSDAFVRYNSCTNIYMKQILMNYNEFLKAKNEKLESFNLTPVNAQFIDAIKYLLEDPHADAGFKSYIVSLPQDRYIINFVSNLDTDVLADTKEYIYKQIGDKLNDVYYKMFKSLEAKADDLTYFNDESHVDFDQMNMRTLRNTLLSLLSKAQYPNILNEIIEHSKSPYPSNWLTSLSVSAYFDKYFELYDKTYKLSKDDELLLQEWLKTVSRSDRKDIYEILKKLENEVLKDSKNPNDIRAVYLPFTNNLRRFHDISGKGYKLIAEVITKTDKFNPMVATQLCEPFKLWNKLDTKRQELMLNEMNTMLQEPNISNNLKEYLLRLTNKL
The experiment in a line: malaria alanyl aminopeptidase activity blockers – biochemical, fluorogenic H-Leu-NHMec substrate, 1536-well (AID 1445). Further details: species or system Plasmodium falciparum 3D7, 3D7.

Assay [2] can be described thus: viability of uninfected HEp-2 cells – cell-based, HTS, cytotoxicity control for RSV inhibitor project, dose response (AID 2410). The format is functional. To be noted: human respiratory syncytial virus.
The target in assay [3] is T3, Heat shock factor protein 1 (Mus musculus, UniProt P38532).
T3 sequence (P38532 whole entry): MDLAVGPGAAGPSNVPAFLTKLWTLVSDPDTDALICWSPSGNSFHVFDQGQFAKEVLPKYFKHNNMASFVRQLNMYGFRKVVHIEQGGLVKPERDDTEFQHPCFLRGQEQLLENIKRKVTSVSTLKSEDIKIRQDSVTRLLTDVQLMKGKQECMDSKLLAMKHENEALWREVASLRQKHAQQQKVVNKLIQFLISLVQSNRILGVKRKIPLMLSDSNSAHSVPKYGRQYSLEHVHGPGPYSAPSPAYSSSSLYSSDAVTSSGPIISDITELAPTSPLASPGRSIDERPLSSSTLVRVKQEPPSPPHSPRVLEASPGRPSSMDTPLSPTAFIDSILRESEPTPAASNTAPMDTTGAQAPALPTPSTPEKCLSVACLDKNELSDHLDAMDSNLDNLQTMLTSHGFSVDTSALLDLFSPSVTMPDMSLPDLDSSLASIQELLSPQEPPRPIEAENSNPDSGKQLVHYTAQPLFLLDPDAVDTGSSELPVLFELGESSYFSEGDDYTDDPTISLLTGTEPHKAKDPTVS
The experiment in a line: enhancement of HSF1-driven luciferase signal – cell-based, NIH3T3, luminescence, dose retest, confirmation (AID 435004).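 Further: stress induced by proteasome inhibitor MG132 added 30 min after compound; luciferase reporter driven by HSF1 response element in NIH3T3 cells; actives raise luminescence as potentiators of the MG132 stress response.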 The format is functional.

A short description of assay [4]: HEK-293T cell viability reduction – luminescence, B-cell screen hits, cytotoxicity control for BCR NF-kB inhibitor project, dose response (AID 489021).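 Further: HEK-293T cells carrying an NF-kB luciferase reporter; cells exposed to compound for about 14 hours before viability readout.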 It counts as functional, cell-based.
In assay [5] the target is T4, Corticotropin-releasing factor receptor 2/Corticotropin-releasing factor-binding protein (Homo sapiens, UniProt P24387+Q13324).
T4 sequence (Q13324 whole entry): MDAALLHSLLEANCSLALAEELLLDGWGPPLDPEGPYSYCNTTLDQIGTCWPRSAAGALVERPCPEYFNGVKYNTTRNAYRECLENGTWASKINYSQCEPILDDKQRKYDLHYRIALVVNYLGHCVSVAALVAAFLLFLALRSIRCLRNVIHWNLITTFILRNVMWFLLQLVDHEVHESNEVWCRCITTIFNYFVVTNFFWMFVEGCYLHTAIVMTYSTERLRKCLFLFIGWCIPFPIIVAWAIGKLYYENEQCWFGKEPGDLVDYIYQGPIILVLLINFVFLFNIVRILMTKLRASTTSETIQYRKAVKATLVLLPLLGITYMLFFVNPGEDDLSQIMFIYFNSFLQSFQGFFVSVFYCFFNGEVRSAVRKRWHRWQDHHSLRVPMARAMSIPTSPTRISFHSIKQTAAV
T4 sequence (P24387 whole entry): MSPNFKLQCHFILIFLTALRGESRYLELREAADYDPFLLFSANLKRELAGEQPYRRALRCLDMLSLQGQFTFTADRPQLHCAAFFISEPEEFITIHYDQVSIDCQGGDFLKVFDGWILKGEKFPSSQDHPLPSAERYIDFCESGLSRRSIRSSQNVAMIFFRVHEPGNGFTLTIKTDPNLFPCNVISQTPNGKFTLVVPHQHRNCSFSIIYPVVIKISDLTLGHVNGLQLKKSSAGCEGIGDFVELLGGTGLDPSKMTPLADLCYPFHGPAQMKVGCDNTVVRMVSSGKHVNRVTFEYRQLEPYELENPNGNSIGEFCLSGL
Kind of assay: activators of CRF receptor 2 with binding protein – uHTS hits, confirmation (AID 602473). It counts as functional. To be noted: read-out: EC50_Mean.

The target of assay [6] is T5, Neuropeptides B/W receptor type 1 (Homo sapiens, UniProt P48145).
T5 sequence (P48145 whole entry): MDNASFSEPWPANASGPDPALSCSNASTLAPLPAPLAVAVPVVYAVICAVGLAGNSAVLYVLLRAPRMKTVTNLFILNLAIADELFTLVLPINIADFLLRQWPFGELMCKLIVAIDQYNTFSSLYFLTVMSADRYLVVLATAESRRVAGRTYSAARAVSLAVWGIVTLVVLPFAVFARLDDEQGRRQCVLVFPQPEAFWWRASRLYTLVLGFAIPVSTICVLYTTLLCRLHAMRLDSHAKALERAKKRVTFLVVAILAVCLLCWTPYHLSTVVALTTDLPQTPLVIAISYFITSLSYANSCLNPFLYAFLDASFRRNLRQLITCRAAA
Kind of assay: Fluorescence-based dose response cell-based high throughput screening assay to identify antagonists of the G-protein coupled receptor 7 (GPR7). [Related pubchem assays: 1952 (Screening assay (GPR7 antagonists).), 1880 (Summary AID.)]. The format is functional.

The target in assay [7] is Melanin-concentrating hormone receptor 1 (Homo sapiens, UniProt Q99705). The experiment in a line: Fluorescence-based counterscreen for antagonists of the G-protein coupled receptor 7 (GPR7): cell-based high throughput dose response assay to identify antagonists of the melanin-concentrating hormone receptor 1 (MCHR1). The format is functional.
Assay [8] is described as follows: Trypanosoma cruzi growth suppression in host cells – NIH3T3 host cells, beta-gal luminescence, confirmation (AID 2044).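 Further: intracellular parasites grown in NIH/3T3 mouse fibroblasts as host cells; luminescent beta-galactosidase reporter signal from transgenic T. cruzi replicating inside host cells; inhibitors lower the luminescence signal.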 The format is functional, cell-based.
The nature of assay [9]: NIH3T3 cell viability loss – ATP luminescence, mouse fibroblasts, counter-screen, dose response (AID 2010).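 Further: cells exposed to compound for about 90 hours before reading.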 The format is functional, cell-based. A general note: Counterscreens check selectivity or assay interference.
A short description of assay [10]: cells. The format is functional, cell-based.
A short description of assay [11]: cells. The format is functional, cell-based. The source holds these as a separate data set.
Another assay addresses Nonstructural protein 1 (Influenza A virus, UniProt Q194T2). The format is functional, Influenza A virus (A/California/07/2009(H1N1)).
Assay [12] concerns the target T6, Microphthalmia-associated transcription factor (Homo sapiens, UniProt O75030).
T6 sequence (O75030 whole entry): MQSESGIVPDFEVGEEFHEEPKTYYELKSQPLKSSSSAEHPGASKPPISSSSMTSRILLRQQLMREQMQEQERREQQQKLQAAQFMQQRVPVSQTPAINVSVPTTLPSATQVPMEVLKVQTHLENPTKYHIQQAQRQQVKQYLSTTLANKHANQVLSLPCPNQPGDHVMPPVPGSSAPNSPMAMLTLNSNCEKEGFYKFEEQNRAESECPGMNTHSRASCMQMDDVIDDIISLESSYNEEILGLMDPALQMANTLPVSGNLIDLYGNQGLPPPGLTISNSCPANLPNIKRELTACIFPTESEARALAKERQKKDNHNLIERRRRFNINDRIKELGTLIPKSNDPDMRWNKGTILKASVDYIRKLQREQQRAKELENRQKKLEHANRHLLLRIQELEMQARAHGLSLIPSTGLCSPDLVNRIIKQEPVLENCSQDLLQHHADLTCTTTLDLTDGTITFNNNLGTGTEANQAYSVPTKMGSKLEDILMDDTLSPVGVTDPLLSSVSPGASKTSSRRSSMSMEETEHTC
Kind of assay: reducers of TRPM1 reporter luminescence, concentration series – cell-based, SK-MEL-5, cherry-picked, set 3, MITF inhibitor project, dose response (AID 493073).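 Further: SK-MEL-5 melanoma cells with luciferase driven by the MITF target TRPM1 promoter.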 It counts as functional.

The target of another assay is Cytochrome P450 3A4 (Homo sapiens, UniProt P08684). To be noted: Potency.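 Further: confirmatory qHTS run detecting inhibitors and substrates of CYP3A4.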
Cytochrome P450 3A4, sequence (P08684 whole entry): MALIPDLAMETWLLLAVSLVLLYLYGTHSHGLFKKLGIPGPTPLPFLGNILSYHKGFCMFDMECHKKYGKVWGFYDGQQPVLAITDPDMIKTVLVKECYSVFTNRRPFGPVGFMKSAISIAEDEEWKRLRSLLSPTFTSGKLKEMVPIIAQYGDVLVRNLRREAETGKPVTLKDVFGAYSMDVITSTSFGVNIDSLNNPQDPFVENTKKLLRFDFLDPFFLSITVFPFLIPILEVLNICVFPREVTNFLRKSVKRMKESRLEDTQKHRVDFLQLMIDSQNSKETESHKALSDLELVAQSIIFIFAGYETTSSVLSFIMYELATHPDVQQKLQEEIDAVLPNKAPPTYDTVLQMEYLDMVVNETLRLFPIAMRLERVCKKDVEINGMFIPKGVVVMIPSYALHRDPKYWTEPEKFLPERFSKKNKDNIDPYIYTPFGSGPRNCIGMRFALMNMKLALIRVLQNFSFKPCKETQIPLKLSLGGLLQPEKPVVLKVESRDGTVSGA

Cytochrome P450 2D6, sequence (P10635 whole entry): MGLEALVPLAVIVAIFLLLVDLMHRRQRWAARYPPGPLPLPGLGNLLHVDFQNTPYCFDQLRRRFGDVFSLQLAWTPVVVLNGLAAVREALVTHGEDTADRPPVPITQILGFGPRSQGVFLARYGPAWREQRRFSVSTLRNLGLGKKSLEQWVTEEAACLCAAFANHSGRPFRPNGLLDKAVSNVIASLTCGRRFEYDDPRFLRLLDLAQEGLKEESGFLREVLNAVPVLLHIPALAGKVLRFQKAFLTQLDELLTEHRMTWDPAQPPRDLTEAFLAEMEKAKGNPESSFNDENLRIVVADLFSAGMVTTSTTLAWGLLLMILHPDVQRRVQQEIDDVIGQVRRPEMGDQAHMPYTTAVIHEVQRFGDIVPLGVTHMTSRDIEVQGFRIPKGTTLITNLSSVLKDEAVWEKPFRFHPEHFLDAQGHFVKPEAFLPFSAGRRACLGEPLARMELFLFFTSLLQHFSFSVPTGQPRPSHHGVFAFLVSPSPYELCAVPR
Melanin-concentrating hormone receptor 1, sequence (Q99705 whole entry): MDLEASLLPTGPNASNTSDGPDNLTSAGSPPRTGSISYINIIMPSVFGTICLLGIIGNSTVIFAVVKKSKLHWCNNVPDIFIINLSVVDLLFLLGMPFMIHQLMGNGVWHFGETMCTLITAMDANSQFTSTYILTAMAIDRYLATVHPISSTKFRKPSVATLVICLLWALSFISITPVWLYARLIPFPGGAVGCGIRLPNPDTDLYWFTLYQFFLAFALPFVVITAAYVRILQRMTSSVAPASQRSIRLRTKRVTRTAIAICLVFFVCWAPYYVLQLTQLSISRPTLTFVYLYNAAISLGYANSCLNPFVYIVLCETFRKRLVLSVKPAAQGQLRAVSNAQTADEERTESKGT
Nonstructural protein 1, sequence (Q194T2 whole entry): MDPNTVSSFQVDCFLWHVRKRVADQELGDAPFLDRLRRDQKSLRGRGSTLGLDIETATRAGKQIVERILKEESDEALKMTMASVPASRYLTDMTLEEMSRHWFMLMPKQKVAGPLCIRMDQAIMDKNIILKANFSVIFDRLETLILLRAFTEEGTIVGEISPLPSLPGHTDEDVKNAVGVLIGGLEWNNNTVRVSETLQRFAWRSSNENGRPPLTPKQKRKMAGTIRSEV
Estrogen receptor beta, sequence (Q92731 whole entry): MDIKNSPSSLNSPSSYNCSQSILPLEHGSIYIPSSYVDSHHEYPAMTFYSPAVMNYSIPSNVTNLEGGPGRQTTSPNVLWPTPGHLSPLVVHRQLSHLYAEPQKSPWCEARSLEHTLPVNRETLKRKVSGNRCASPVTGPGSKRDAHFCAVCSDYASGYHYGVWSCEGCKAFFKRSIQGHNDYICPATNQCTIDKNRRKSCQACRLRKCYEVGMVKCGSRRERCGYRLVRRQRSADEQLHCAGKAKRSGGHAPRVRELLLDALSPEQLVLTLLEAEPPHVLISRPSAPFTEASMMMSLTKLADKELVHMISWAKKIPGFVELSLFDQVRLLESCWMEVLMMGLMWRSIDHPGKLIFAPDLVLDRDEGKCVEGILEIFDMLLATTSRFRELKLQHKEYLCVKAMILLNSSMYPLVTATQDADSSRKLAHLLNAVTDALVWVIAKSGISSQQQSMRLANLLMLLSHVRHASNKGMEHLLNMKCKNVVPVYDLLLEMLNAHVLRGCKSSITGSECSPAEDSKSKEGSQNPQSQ

`Cc1ccc(OCC(O)Cn2c(N)nc3c2c(=O)n(C)c(=O)n3C)cc1` (configuration not stated): the EC50 in assay [1] is > 50 µM (active).

Broadly, the IC50 is the concentration that gives 50% inhibition. Take `O=C(Nc1ccc(Cc2ccncc2)cc1)C1CCC(N2C(=O)C3CC=CCC3C2=O)CC1` (configuration not stated): the IC50 against Estrogen receptor and on Estrogen receptor beta was > 50 µM (not active) in each case.

Consider `CC1=NCCc2c1[nH]c1cc(O)ccc21` [HARMALOL], for which, on Cytochrome P450 2D6, the AC50 was 31.6 µM (inconclusive).

Turning to `O=C(O)COc1ccc(Br)cc1CP(=O)(c1ccccc1)c1ccccc1`, the IC50 on Aminopeptidase N is 49.3 µM (active).

As usually defined, the CC50 is the concentration at which the toxic effect on the cells reaches its halfway point. Turning to `CC1=CC(C)(C)Nc2ccc(OC(=O)C(Cc3ccccc3)N3C(=O)c4ccccc4C3=O)cc21` (configuration not stated), in assay [2], the CC50 is > 50 µM (active). For the same compound, the EC50 in assay [3] is > 260 µM (inactive). Also, the IC50 in assay [4] was > 80 µM (inactive).

Take `COc1ccccc1/C=C/C(=O)Nc1cccc(C(C)=O)c1`: the EC50 in assay [1] is > 50 µM (active).

As to `CCOC(=O)c1cc2ccccc2n1CCN(CC)CC`, at Estrogen receptor, the IC50 is > 50 µM (not active). For the same compound, the EC50 in assay [5] was 6.45 µM (active).

Regarding `O=[N+]([O-])c1nn(-c2ccc3c(c2)OCCO3)[n+]([O-])c1Nc1ccc(Cl)cc1`, the IC50 in assay [6] and in [7] was > 43.8 µM (not active) throughout. The EC50 was 0.131 µM (active) in assay [8] and > 60 µM (not active) in [9].

In the case of `O=C(Nc1cccc(-c2cn3cccnc3n2)c1)c1ccc2c(c1)OCO2`, the IC50 on Estrogen receptor was 6.67 µM (active).

With `O=C(N/N=C/c1cc(Cl)ccc1O)c1ccncc1`, the IC50 on Aminopeptidase N was 22.3 µM (active); on Nonstructural protein 1, 5.05 µM (active). The figures for the EC50 in “cells [10]” and in the assay “cells [11]” were 18.1 µM (active) and > 350 µM (not active), respectively. Further, in [12], the AC50 is 8.98 µM (active).

For the compound `Cc1ccc(N=C(S)NCc2ccc(Cl)cc2)c(C)c1`, the concentration for half-maximal inhibition (IC50) in assay [6] was > 43.8 µM (not active); in assay [7], 17.1 µM (not active).

Consider `Cc1ccccc1CSc1nc(O)c2c[nH]nc2n1`, for which the IC50 on Aminopeptidase N was 65.2 µM (active).

In the case of `CCCCc1nc2c(c3c1CC(C)OC3)CN(CCOc1ccccc1)CC2` (configuration not stated), the AC50 on Cytochrome P450 2D6 and at Cytochrome P450 3A4 was 3.16 µM (inconclusive) each time.

In the case of `Nc1ncncc1-c1ccc(Cl)cc1`, the EC50 in assay [1] was > 50 µM (active).

The values above are taken from ChEMBL document CHEMBL1201862, “PubChem BioAssay data set” (2004).
